This is an account of results in ChEMBL document CHEMBL1126530, “A concise enantioselective synthesis of rans-olefin dipeptide isosteres” (Bioorg Med Chem Lett, 1993).

The target in this experiment is Human immunodeficiency virus type 1 protease (Human immunodeficiency virus 1, UniProt Q72874). Nature of the experiment: Inhibitory constant against HIV-1 protease.
With `COC(=O)[C@@H](NC(=O)[C@@H](/C=C/[C@@H](C(=O)N[C@H](C(=O)OC)C(C)C)C(C)C)Cc1ccccc1)C(C)C`, the Ki was determined as 5 µM.

With `COC(=O)[C@@H](NC(=O)[C@@H](/C=C/[C@H](C)C(=O)N[C@H](C(=O)OC)C(C)C)C(C)C)C(C)C`, the Ki is over 67 µM. As for `COC(=O)[C@@H](NC(=O)[C@@H](C)/C=C/[C@@H](Cc1ccccc1)C(=O)N[C@H](C(=O)OC)C(C)C)C(C)C`, the figure is over 67 µM.
